Values quoted from earlier work as cited in patent US8728553B2, “Vitamin containing product” (Nattopharma ASA, priority 2000, dated 2014).

Settings: intake of 5 g butter to which 800 μg MK-4 had been added (equivalent to 16 mg MK-4 per 100 g butter)

MK-4 levels in blood serum: increased
Compound: CC(C)=CCC/C(C)=C/CC/C(C)=C/CC/C(C)=C/CC1=C(C)C(=O)c2ccccc2C1=O [MK-4, menaquinone (MK-4)]
